For data set [1] the following is noted: 0.5 μM compound, human liver microsomes, ten-minute incubation, NADPH.
Procedure: The metabolic stability assay evaluated CYP-mediated metabolic stability in vitro using human, rat, mouse, dog, and/or monkey microsomes after a ten-minute incubation. Each compound was tested in duplicate.
Test compound was received as a 3.5 mM stock solution in 100 percent DMSO. […] Each compound was tested in duplicate separately in each of three species in the Metabolic Stability-Human, Rat, and Mouse assay suite or as individual species in the Metabolic Stability-Dog or Metabolic Stability-Monkey suites. Compound, NADPH, and liver microsome solutions were combined for incubation in three steps:
The reaction was initiated by the addition of 17 μl of pre-warmed 10 mM NADPH solution in 100 mM NaPi, pH 7.4.
The reaction components were mixed well, and 75 μl of the reaction mixture was immediately transferred into 150 μl quench/stop solution (zero-time point, T0). Reactions were incubated at 37° C. for 10 minutes and then an additional 75 μl aliquot was transferred into 150 μl quench solution. Acetonitrile containing 100 μM DMN (a UV standard for injection quality control), was used as the quench solution to terminate metabolic reactions.
Quenched mixtures were centrifuged at 1500 rpm (˜500×g) in an ALLEGRA® X-12 centrifuge, SX4750 rotor (Beckman Coulter Inc., Fullerton, Calif.) for fifteen minutes to pellet denatured microsomes. A volume of 90 μl of supernatant extract, containing the mixture of parent compound and its metabolites, was then transferred to a separate 96-well plate for UV-LC/MS-MS analysis to determine the percent of parent compound that remained in the mixture.
Peak integration was performed with the XCALIBUR® software. The percent remaining calculation was performed by comparing the LC-MS/MS peak areas from the T10minute samples to those from the T0minute samples for each compound.
A set of three compounds was tested along with the test compound in each assay plate.
Data set [2] is described as follows: High Throughput Metabolic Stability Panel, mouse liver microsomes. Conditions: 0.5 μM compound, mouse liver microsomes, ten-minute incubation, NADPH. On the technique in general: Liver microsomes are a subcellular fraction often used to study metabolism.
A short description of data set [3]: Solution Stability Assay. The class given is physicochemical. Here is the method:
Acetonitrile Stock Solution: Acetonitrile Stock Solution of the prodrug was prepared by dissolving 1.5-2.0 mg of weighted compound in 5.0 mL of acetonitrile in a 5 mL volumetric flask.
pH 6.5 Buffer Working Solution: A pH 6.5 Buffer Working Solution of drug was prepared by adding 1.5 mL of the Acetonitrile Stock Solution to 3.5 mL of stability buffer (50 mM potassium phosphate, pH 6.5) in a 10 mL vial, and mixing. Using a 3 mL syringe, ˜3 mL of solution was withdrawn and filtered using the Gelman 0.45 μm syringe filter into a clean 1.5 mL LC vial. This filtered solution will was used to evaluate the prodrug degradation throughout the course of the study. Target concentration: 90-120 μg/mL (70% Aqueous: 30% Acetonitrile)
pH 4.0 Acidic Working Solution: A pH 4.0 Working Solution of drug was prepared by adding 1.5 mL of the Acetonitrile Stock Solution to 3.5 mL of stability buffer (50 mM sodium acetate, pH 4.0) in a 10 mL vial and mixing. Using a 3 mL syringe, ˜3 mL of solution was withdrawn and filtered using the Gelman 0.45 μm syringe filter into a clean 1.5 mL LC vial. This filtered solution was used to evaluate the prodrug degradation throughout the course of the study. Target concentration: 90-120 μg/mL (70% Aqueous: 30% Acetonitrile)
Experimental Methods: Following the sample preparation procedure described above a single sample (n=1) was prepared for each pH condition. The samples were then placed in an HPLC autosampler maintained at 37° C. and samples were analyzed over a 24 h period. Prodrug remaining (%) was reported relative to the initial peak area (t=0 h). In cases where a conversion to parent half-life could be calculated, a t1/2 was generated. Confirmation of the conversion to parent from the prodrug was obtained by LCMS and HPLC analysis of the final timepoint samples.
Typical LC parameters are shown below: • HPLC System: HP1100 Series, Hewlett Packard., Heated autosampler • Analytical column: Synergi 4 u Hydro C18, 4.6 mm×5.0 cm, PHENOMENEX® • Column temperature: 40° C. • Autosampler temp: 37° C. • Flow rate: 1.0 mL/min • Injection Volume: 10 μL • Mobile Phase: A: Acetonitrile • B: 0.1% Phosphoric acid in water • Run Time: 14.0 minutes Typical LCMS parameters are shown below: • LC-MS System: Surveyor HPLC system, ThermoFinnigan LCQ Deca XP Max (Ion trap) • Analytical column: Synergi 4 u Hydro C18, 4.6 mm×5.0 cm, PHENOMENEX® • Column temperature: 40° C. • Autosampler temp: 22° C. • Flow rate: 1.0 mL/min • Injection Volume: 5 μL • Mobile Phase: A: 95% Acetonitrile/5% 20 mM Ammonium Acetate • B: 5% Acetonitrile/95% 20 mM Ammonium Acetate LCQ Parameters: • Sheath Flow Rate: 81.64 • Aux/Sweep Flow Rate: 19.01 • Current (uA): 10.89 • Voltage (kV): 5.00 • Capillary (C): 348.10 • Capillary Voltage (V): 30.44

A short description of data set [4]: Thermodynamic Equilibrium Aqueous Solubility Assay. The class given is physicochemical. Conditions: thermodynamic from solid. The protocol:
Standards Preparation: The calibration standard was prepared by accurately weighing 0.5-0.7 mg of sample in 5 ml of methanol. If the material was not fully soluble in methanol, other solvents such as DMSO or mixed solvents were used.
Test Sample Preparation: An excess amount of powder prodrug was equilibrated with 1 mL of buffer (50 mM potassium phosphate, pH 6.5 and 50 mM sodium acetate, pH 4.0) in a 2 mL glass vial. The solution was sonicated and vortexed for ˜30 seconds. The vials were shaken at 300 rpm at room temperature for 24 hrs. The exact incubation time for a specific prodrug was based on the prior aqueous stability data. If the compound was stable in the buffer up to 24 hrs, then the solubility was measured after 24 hrs, otherwise kinetic solubility data was reported. The final saturated solution was then transferred to a 1.5 mL Eppendorf tube and centrifuged for ˜2 min. at 10000 rpms. The supernatant from the saturated solution was transferred to a glass HPLC vial and the solubility was analyzed by HPLC using a four point calibration curve.

Data set [5] relates to TALL1 Human T-cell acute lymphoblastic leukemia. Kind of data set: Human tumor xenograft in mice: TALL1. The class given is in vivo. Particulars: FIG. 1; dosed intravenously QD×3, weekly×3; Compound A 3 mg/kg; Example 12 1.5, 3, 6 mg/kg; active = TGI≧50%. In general terms: Xenograft models place foreign cells or tissue in a host animal.
[6] abbreviates: potassium phosphate buffer with 30% acetonitrile, pH 6.5, read-out: Stability (t1/2, h) pH 6.5 (converted).
Where [7] appears, read: sodium acetate buffer with 30% acetonitrile, pH 4, read-out: Stability (t1/2, h) pH 4.0 (converted).
The mark [8] stands for this setting: potassium phosphate buffer, pH 6.5, aqueous buffer, read-out: Solubility (mg/mL) pH 6.5.
Setting [9] is: sodium acetate buffer, pH 4, aqueous buffer, read-out: Solubility (mg/mL) pH 4.0.

Each structure is given as a SMILES string. Values after ≈ are worked out from the molar mass of the structure shown. Like-named read-outs stand apart in the source and are kept apart here.

Take `NC(=O)[C@@H](CCC(F)(F)F)[C@@H](CCC(F)(F)F)C(=O)N[C@H]1N=C(c2ccccc2)c2ccccc2NC1=O` [Compound B, (2R,3S)—N-((3S)-2-Oxo-5-phenyl-2,3-dihydro-1H-1,4-benzodiazepin-3-yl)-2,3-bis(3,3,3-trifluoropropyl)succinamide]: the “0.5 μM HLM (% Remaining)” value in data set [1] turned out to be 88%. Further, in data set [2], the “0.5 μM MsLM (% Remaining)” value turned out to be 86%.

As to `NC(=O)[C@@H](CCC(F)(F)F)[C@@H](CCC(F)(F)F)C(=O)N[C@H]1N=C(c2ccccc2)c2ccccc2N(COC(=O)Cc2ccc(OP(=O)(O)O)cc2)C1=O` [Example 1, ((3S)-3-(((2R,3S)-3-Carbamoyl-6,6,6-trifluoro-2-(3,3,3-trifluoropropyl)hexanoyl)amino)-2-oxo-5-phenyl-2,3-dihydro-1H-1,4-benzodiazepin-1-yl)methyl (4-(phosphonooxy)phenyl)acetate], the half-life in data set [3] (setting [6]) and in data set [3] (setting [7]) was greater than 500 h each time. The solubility at 24 h in data set [4] (setting [8]) is greater than 1.22 mg/mL; in data set [4] (setting [9]) it was 0.01 mg/mL (≈ 12.7 µM).

For the molecule `CN1C(=O)[C@@H](NC(=O)[C@H](CCC(F)(F)F)[C@H](CCC(F)(F)F)C(=O)NCN2CCCCC2)N=C(c2ccccc2)c2ccccc21` [Example 16, (2R,3S)—N-((3S)-1-Methyl-2-oxo-5-phenyl-2,3-dihydro-1H-1,4-benzodiazepin-3-yl)-N′-(1-piperidinylmethyl)-2,3-bis(3,3,3-trifluoropropyl)succinamide], the half-life in data set [3] (setting [6]) is 16 h; in data set [3] (setting [7]), 250 h. Besides, the solubility at 24 h in data set [4] (setting [8]) is 0.01 mg/mL (≈ 15.3 µM); in data set [4] (setting [9]) it was 0.23 mg/mL (≈ 352 µM).

As for `CN1C(=O)[C@@H](NC(=O)[C@H](CCC(F)(F)F)[C@H](CCC(F)(F)F)C(=O)NCN2CCC(N)CC2)N=C(c2ccccc2)c2ccccc21` [Example 17, (2S,3R)—N-((4-Amino-1-piperidinyl)methyl)-N′-((3S)-1-methyl-2-oxo-5-phenyl-2,3-dihydro-1H-1,4-benzodiazepin-3-yl)-2,3-bis(3,3,3-trifluoropropyl)succinamide], the results for the half-life in data set [3] (setting [6]) and in data set [3] (setting [7]) were 300 h and 250 h, respectively. Also, the values for the solubility at 24 h in data set [4] (setting [8]) and in data set [4] (setting [9]) were greater than 1.9 mg/mL and 0.56 mg/mL (≈ 837 µM), respectively.

For `CN1C(=O)[C@@H](NC(=O)[C@H](CCC(F)(F)F)[C@H](CCC(F)(F)F)C(=O)NCN2CCC(N(C)C)C2)N=C(c2ccccc2)c2ccccc21` (stereo partly drawn) [Example 21, (2S,3R)—N-((3-(Dimethylamino)-1-pyrrolidinyl)methyl)-N′-((3S)-1-methyl-2-oxo-5-phenyl-2,3-dihydro-1H-1,4-benzodiazepin-3-yl)-2,3-bis(3,3,3-trifluoropropyl)succinamide], the results for the half-life in data set [3] (setting [6]) and in data set [3] (setting [7]) were 376 h and 334 h, respectively. For the same molecule, the solubility at 24 h was found to be 0.63 mg/mL (≈ 923 µM) in data set [4] (setting [8]) and 0.64 mg/mL (≈ 937 µM) in data set [4] (setting [9]).

With `COC(=O)[C@@H](N)CSNC(=O)[C@@H](CCC(F)(F)F)[C@@H](CCC(F)(F)F)C(=O)N[C@H]1N=C(c2ccccc2)c2ccccc2N(C)C1=O` [Example 14, Methyl S-(((2S,3R)-6,6,6-trifluoro-3-(((3S)-1-methyl-2-oxo-5-phenyl-2,3-dihydro-1H-1,4-benzodiazepin-3-yl)carbamoyl)-2-(3,3,3-trifluoropropyl)hexanoyl)amino)-L-cysteinate], the figures for the half-life in data set [3] (setting [6]) and in data set [3] (setting [7]) were 44 h and 73 h, respectively. Moreover, the solubility at 24 h was 0.02 mg/mL (≈ 29 µM) in data set [4] (setting [8]) and 0.42 mg/mL (≈ 609 µM) in data set [4] (setting [9]).

Regarding `CN1C(=O)[C@@H](NC(=O)[C@H](CCC(F)(F)F)[C@H](CCC(F)(F)F)C(=O)NSC[C@H](N)C(=O)O)N=C(c2ccccc2)c2ccccc21` [Example 12, S-(((2S,3R)-6,6,6-Trifluoro-3-(((3S)-1-methyl-2-oxo-5-phenyl-2,3-dihydro-1H-1,4-benzodiazepin-3-yl)carbamoyl)-2-(3,3,3-trifluoropropyl)hexanoyl)amino)-L-cysteine], the half-life in data set [3] (setting [6]) was 251 h; in data set [3] (setting [7]), 376 h. Besides, in data set [5], the “in vivo efficacy against TALL1, activity as defined by the tumor growth inhibition (TGI)” value is listed as “active”. Besides, the solubility at 24 h in data set [4] (setting [8]) amounted to 0.63 mg/mL (≈ 932 µM); in data set [4] (setting [9]) it was 0.82 mg/mL (≈ 1210 µM).

`NCCSNC(=O)[C@@H](CCC(F)(F)F)[C@@H](CCC(F)(F)F)C(=O)N[C@H]1N=C(c2ccccc2)c2ccccc2NC1=O` [Example 8, (2S,3R)—N-((2-Aminoethyl)sulfanyl)-N′-((3S)-2-oxo-5-phenyl-2,3-dihydro-1H-1,4-benzodiazepin-3-yl)-2,3-bis(3,3,3-trifluoropropyl)succinamide]: the half-life in data set [3] (setting [6]) is 334 h; in data set [3] (setting [7]), greater than 500 h. Moreover, the solubility at 24 h in data set [4] (setting [8]) is greater than 0.47 mg/mL; in data set [4] (setting [9]), 0.52 mg/mL (≈ 842 µM).

With `CC(C)(N)C(=O)OCN1C(=O)[C@@H](NC(=O)[C@H](CCC(F)(F)F)[C@H](CCC(F)(F)F)C(N)=O)N=C(c2ccccc2)c2ccccc21` [Example 4, ((3S)-3-(((2R,3S)-3-Carbamoyl-6,6,6-trifluoro-2-(3,3,3-trifluoropropyl)hexanoyl)amino)-2-oxo-5-phenyl-2,3-dihydro-1H-1,4-benzodiazepin-1-yl)methyl 2-methylalaninate], the figures for the half-life in data set [3] (setting [6]) and in data set [3] (setting [7]) were 8 h and 64 h, respectively. Besides, the solubility at 24 h in data set [4] (setting [8]) was greater than 1.07 mg/mL; in data set [4] (setting [9]), greater than 3.23 mg/mL.

With `NC(=O)[C@@H](CCC(F)(F)F)[C@@H](CCC(F)(F)F)C(=O)N[C@H]1N=C(c2ccccc2)c2ccccc2N(COC(=O)C2(N)CC2)C1=O` [Example 7, ((3S)-3-(((2R,3S)-3-Carbamoyl-6,6,6-trifluoro-2-(3,3,3-trifluoropropyl)hexanoyl)amino)-2-oxo-5-phenyl-2,3-dihydro-1H-1,4-benzodiazepin-1-yl)methyl 1-aminocyclopropanecarboxylate], the half-life in data set [3] (setting [6]) and in data set [3] (setting [7]) was greater than 500 h throughout. Besides, the solubility at 24 h in data set [4] (setting [8]) worked out at 2.09 mg/mL (≈ 3190 µM); in data set [4] (setting [9]) it was 1.78 mg/mL (≈ 2720 µM).

Turning to `NC(=O)[C@@H](CCC(F)(F)F)[C@@H](CCC(F)(F)F)C(=O)N[C@H]1N=C(c2ccccc2)c2ccccc2N(COC(=O)c2ccc(COP(=O)(O)O)cc2)C1=O` [Example 2, ((3S)-3-(((2R,3S)-3-Carbamoyl-6,6,6-trifluoro-2-(3,3,3-trifluoropropyl)hexanoyl)amino)-2-oxo-5-phenyl-2,3-dihydro-1H-1,4-benzodiazepin-1-yl)methyl 4-((phosphonooxy)methyl)benzoate], the half-life in data set [3] (setting [6]) and in data set [3] (setting [7]) was greater than 500 h in each case. Also, the solubility at 24 h is 0.42 mg/mL (≈ 534 µM) in data set [4] (setting [8]) and 0.99 mg/mL (≈ 1260 µM) in data set [4] (setting [9]).

For the origin of these results see patent publication US9273075B2, “Prodrugs of 1,4-benzodiazepinone compounds” (BRISTOL-MYERS SQUIBB COMPANY, priority 2012, dated 2016).
